Numbered stars: 1 amine (or outer) side, 2 acyl side, 3 side chain; on linkers, the order of the positions; unused ones are H or OH. Bridge positions count the residues as written; N and C are the ends. Square brackets hold non-standard residues; d marks the D form. Side chains are listed from the residue outwards. Peptide text beside a SMILES is read from it. * marks the point of attachment. C18 diacid = O=C(O)CCCCCCCCCCCCCCCCC(=O)*; γGlu = O=C(O)[C@H](CCC(=O)[*:2])N[*:1]; αMeF = C[C@](N)(Cc1ccccc1)C(=O)O; Dab = NCC[C@H](N)C(=O)O; Aib = CC(C)(N)C(=O)O
Legend:
[1] = molecular target: T1, rat amylin receptor (calcitonin receptor co-expressed with receptor activity modifying protein, RAMP3) (Rat AMYR3) (Rattus norvegicus, UniProt P32214+Q9JJ73); assay: cAMP production in HEK cells with stable recombinant expression of rat amylin receptor (Rat AMYR3); assay type: cell-based; conditions: assay buffer with 0.1% BSA
T1 construct: expressed in transfected cells
T1 sequence (P32214 25-516): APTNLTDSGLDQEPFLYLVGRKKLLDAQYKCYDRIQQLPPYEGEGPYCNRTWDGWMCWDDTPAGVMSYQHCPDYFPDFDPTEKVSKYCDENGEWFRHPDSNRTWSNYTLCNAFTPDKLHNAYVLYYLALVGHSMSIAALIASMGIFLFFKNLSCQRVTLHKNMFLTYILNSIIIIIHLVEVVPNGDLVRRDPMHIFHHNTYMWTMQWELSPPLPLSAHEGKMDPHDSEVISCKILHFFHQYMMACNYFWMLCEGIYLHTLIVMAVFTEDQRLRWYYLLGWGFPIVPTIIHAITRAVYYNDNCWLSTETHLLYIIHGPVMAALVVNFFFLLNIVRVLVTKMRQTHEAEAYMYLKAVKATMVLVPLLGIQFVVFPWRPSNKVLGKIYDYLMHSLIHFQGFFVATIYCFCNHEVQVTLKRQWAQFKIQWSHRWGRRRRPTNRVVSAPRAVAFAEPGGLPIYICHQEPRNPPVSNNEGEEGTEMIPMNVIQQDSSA
T1 sequence (Q9JJ73 23-147 partner): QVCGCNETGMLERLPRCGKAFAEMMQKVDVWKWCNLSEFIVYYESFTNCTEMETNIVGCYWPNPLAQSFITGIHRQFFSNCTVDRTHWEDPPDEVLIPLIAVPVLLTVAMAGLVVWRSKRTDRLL
Procedure, shortened: (§1)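 Receptor-expressing cells (human receptors in 1321N1, rat receptors in HEK) incubated 30 min at room temperature with peptide in HBSS/HEPES pH 7.4, 0.1% BSA, 0.5 mM IBMX. cAMP read by HTRF; EC50 from 4-parameter fit as % of maximal amylin or calcitonin response.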

[2] = molecular target: T2, rat calcitonin receptor (rat CTR) (Rattus norvegicus, UniProt P32214); assay: cAMP production in HEK cells with stable recombinant expression of rat calcitonin receptor (rat CTR); assay type: cell-based; conditions: assay buffer with 0.1% BSA
T2 construct: expressed in transfected cells
T2 sequence (P32214 25-516): T1 sequence (P32214 25-516)
Procedure, shortened: as §1

[3] = Thioflavin T fibrillation assay; assay type: physicochemical; conditions: for Time taken to detect increase in fluorescence intensity: ThT fibrillation assay, peptide 1 mg/mL in 25 mM sodium acetate buffer pH 4.0, 6 days at 37 °C with shaking, >144 h = no increase
Procedure, shortened: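 Peptides at 1 mg/mL in 25 mM sodium acetate pH 4.0 with ThT (from 0.25 mM stock), incubated 6 days at 37 °C with intermittent orbital shaking at 500–750 rpm. Fluorescence (ex 444/em 480 nm) read every 30 min; value is average time to a rise in baseline-corrected signal.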

[4] = test system: lean rats; assay: Rat acute food intake study; assay type: in vivo; conditions: lean male Sprague Dawley rats, 20 nmol/kg subcutaneously
Procedure, shortened: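 Male Sprague Dawley rats (n=7/group), fasted 6 h, received 20 nmol/kg test compound or 60 nmol/kg pramlintide subcutaneously 30 min before food return at dark onset. Food intake recorded automatically in home cages over 3 days, binned hourly and analysed as cumulative dark-period intake; body weight taken daily.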

Compound: CC[C@H](C)[C@H](NC(=O)[C@@H]1CCCN1C(=O)CNC(=O)[C@H](Cc1ccccc1)NC(=O)[C@H](CC(N)=O)NC(=O)[C@H](CC(N)=O)NC(=O)[C@H](CO)NC(=O)[C@H](CO)NC(=O)[C@H](Cc1c[nH]cn1)NC(=O)[C@@H](NC(=O)[C@H](CC(C)C)NC(=O)[C@H](Cc1ccccc1)NC(=O)[C@H](CC(N)=O)NC(=O)[C@H](C)NC(=O)[C@H](CC(C)C)NC(=O)[C@H](CCCNC(=N)N)NC(=O)[C@H](CCC(N)=O)NC(=O)[C@@H](NC(=O)[C@H](C)NC(=O)[C@@H]1CSSC[C@H](NC(=O)[C@H](CCCCN)NC(=O)CC[C@H](NC(=O)CCCCCCCCCCCCCCCCC(=O)O)C(=O)O)C(=O)N[C@@H](CC(N)=O)C(=O)N[C@@H]([C@@H](C)O)C(=O)N[C@@H](C)C(=O)N[C@@H]([C@@H](C)O)C(=O)N1)[C@@H](C)O)C(C)C)C(=O)N[C@@H](CC(C)C)C(=O)N1CCC[C@H]1C(=O)N1CCC[C@H]1C(=O)N[C@H](C(=O)N[C@@H](CC(N)=O)C(=O)N[C@H](C(=O)NCC(=O)N[C@@H](CO)C(=O)N[C@@H](CC(N)=O)C(=O)N[C@H](C(=O)N[C@@H](Cc1ccc(O)cc1)C(N)=O)[C@@H](C)O)C(C)C)[C@@H](C)O [Peptide 3] ({C18 diacid-γGlu}-KCNTATCATQRLANFLVHSSNNFGPILPPTNVGSNTY-NH2; disulfide 2-7)
- EC50 [1]: 2.9 pM
- EC50 [2]: 186 pM
- fibril-forming tendency ([3]; ThT assay, 1 mg/mL, pH 4.0, 37 °C, compared to pramlintide): increases the fibril-forming tendency
- Time taken to detect increase in fluorescence intensity [3]: <5 h
- Cummulative food intake (% vehicle treated intake) At 12 h [4]: 13.4 % vehicle treated intake
- Cummulative food intake (% vehicle treated intake) At 24 h [4]: 14.4 % vehicle treated intake
- Cummulative food intake (% vehicle treated intake) At 48 h [4]: 30.3 % vehicle treated intake

Compound: CC[C@H](C)[C@H](NC(=O)[C@H](C)NC(=O)[C@@H]1CCCN1C(=O)[C@H](Cc1ccccc1)NC(=O)[C@H](CC(N)=O)NC(=O)[C@H](CCN)NC(=O)[C@H](CO)NC(=O)[C@H](CO)NC(=O)[C@H](Cc1c[nH]cn1)NC(=O)[C@@H](NC(=O)[C@H](CC(C)C)NC(=O)[C@H](Cc1ccccc1)NC(=O)[C@H](CC(N)=O)NC(=O)[C@H](C)NC(=O)[C@H](CC(C)C)NC(=O)[C@H](CCCNC(=N)N)NC(=O)[C@H](CCC(N)=O)NC(=O)[C@@H](NC(=O)[C@H](C)NC(=O)[C@@H]1CSSC[C@H](NC(=O)[C@@H](N)CCCCNC(=O)CC[C@H](NC(=O)CC[C@H](NC(=O)CCCCCCCCCCCCCCCCC(=O)O)C(=O)O)C(=O)O)C(=O)N[C@@H](CC(N)=O)C(=O)N[C@@H]([C@@H](C)O)C(=O)N[C@@H](C)C(=O)N[C@@H]([C@@H](C)O)C(=O)N1)[C@@H](C)O)C(C)C)C(=O)N[C@@H](CC(C)C)C(=O)N[C@@H](CO)C(=O)N1CCC[C@H]1C(=O)N[C@H](C(=O)N[C@@H](CC(N)=O)C(=O)N[C@H](C(=O)NCC(=O)N[C@@H](CO)C(=O)N[C@@H](CC(N)=O)C(=O)N[C@H](C(=O)N[C@@H](Cc1ccc(O)cc1)C(N)=O)[C@@H](C)O)C(C)C)[C@@H](C)O [Peptide 8, K(γE-γE-C18diacid)[CNTATC]ATQRLANFLVHSS(Dab)NFPAILSPTNVGSNTY-amide] (H-K([γGlu-γGlu-C18 diacid])CNTATCATQRLANFLVHSS[Dab]NFPAILSPTNVGSNTY-NH2; disulfide 2-7)
- EC50 [1]: 25.6 pM
- EC50 [2]: 19900 pM
- Time taken to detect increase in fluorescence intensity [3]: 7 h
- Cummulative food intake (% vehicle treated intake) At 12 h [4]: 28.1 % vehicle treated intake
- Cummulative food intake (% vehicle treated intake) At 24 h [4]: 42.7 % vehicle treated intake
- Cummulative food intake (% vehicle treated intake) At 48 h [4]: 68.8 % vehicle treated intake

Compound: CC[C@H](C)[C@H](NC(=O)[C@H](C)NC(=O)[C@@H]1CCCN1C(=O)[C@H](Cc1ccccc1)NC(=O)[C@H](CC(N)=O)NC(=O)C(C)(C)NC(=O)[C@H](CO)NC(=O)[C@H](CO)NC(=O)[C@H](Cc1c[nH]cn1)NC(=O)[C@@H](NC(=O)[C@H](CC(C)C)NC(=O)[C@H](Cc1ccccc1)NC(=O)[C@H](CC(N)=O)NC(=O)[C@H](C)NC(=O)[C@H](CC(C)C)NC(=O)[C@H](CCCNC(=N)N)NC(=O)[C@H](CCC(N)=O)NC(=O)[C@@H](NC(=O)[C@H](C)NC(=O)[C@@H]1CSSC[C@H](NC(=O)[C@@H](N)CCCCNC(=O)CC[C@H](NC(=O)CC[C@H](NC(=O)CCCCCCCCCCCCCCCCC(=O)O)C(=O)O)C(=O)O)C(=O)N[C@@H](CC(N)=O)C(=O)N[C@@H]([C@@H](C)O)C(=O)N[C@@H](C)C(=O)N[C@@H]([C@@H](C)O)C(=O)N1)[C@@H](C)O)C(C)C)C(=O)N[C@@H](CC(C)C)C(=O)N[C@@H](CO)C(=O)N1CCC[C@H]1C(=O)N[C@H](C(=O)N[C@@H](CC(N)=O)C(=O)N[C@H](C(=O)NCC(=O)N[C@@H](CO)C(=O)N[C@@H](CC(N)=O)C(=O)N[C@H](C(=O)N[C@@H](Cc1ccc(O)cc1)C(N)=O)[C@@H](C)O)C(C)C)[C@@H](C)O [Peptide 9, K(γE-γE-C18diacid)[CNTATC]ATQRLANFLVHSS(Aib)NFPAILSPTNVGSNTY-amide] (H-K([γGlu-γGlu-C18 diacid])CNTATCATQRLANFLVHSS[Aib]NFPAILSPTNVGSNTY-NH2; disulfide 2-7)
- EC50 [1]: 17.8 pM
- EC50 [2]: 9720 pM
- Time taken to detect increase in fluorescence intensity [3]: 7 h
- Cummulative food intake (% vehicle treated intake) At 12 h [4]: 21.9 % vehicle treated intake
- Cummulative food intake (% vehicle treated intake) At 24 h [4]: 30.8 % vehicle treated intake
- Cummulative food intake (% vehicle treated intake) At 48 h [4]: 56.5 % vehicle treated intake

Compound: CC[C@H](C)[C@H](NC(=O)[C@@H]1CCCN1C(=O)CNC(=O)[C@](C)(Cc1ccccc1)NC(=O)[C@H](CC(N)=O)NC(=O)[C@H](CC(N)=O)NC(=O)[C@H](CO)NC(=O)[C@H](CO)NC(=O)[C@H](Cc1c[nH]cn1)NC(=O)[C@H](CCCNC(=N)N)NC(=O)[C@H](CC(C)C)NC(=O)[C@H](Cc1ccccc1)NC(=O)[C@H](CCC(=O)O)NC(=O)[C@H](C)NC(=O)[C@H](CC(C)C)NC(=O)[C@H](CCCNC(=N)N)NC(=O)[C@H](CCC(N)=O)NC(=O)[C@@H](NC(=O)[C@H](C)NC(=O)[C@@H]1CSSC[C@H](NC(=O)CC[C@H](NC(=O)CCCCCCCCCCCCCCCCC(=O)O)C(=O)O)C(=O)N[C@@H](CC(N)=O)C(=O)N[C@@H]([C@@H](C)O)C(=O)N[C@@H](C)C(=O)N[C@@H]([C@@H](C)O)C(=O)N1)[C@@H](C)O)C(=O)N[C@@H](CC(C)C)C(=O)N1CCC[C@H]1C(=O)N1CCC[C@H]1C(=O)N[C@H](C(=O)N[C@@H](CC(N)=O)C(=O)N[C@H](C(=O)NCC(=O)N[C@@H](CO)C(=O)N[C@@H](CC(N)=O)C(=O)N[C@H](C(=O)N[C@@H](Cc1ccc(O)cc1)C(N)=O)[C@@H](C)O)C(C)C)[C@@H](C)O [Peptide 10, C18diacid-γE-[CNTATC]ATQRLAEFLRHSSNN(αMePhe)GPILPPTNVGSNTY-amide] ({C18 diacid-γGlu}-CNTATCATQRLAEFLRHSSNN[αMeF]GPILPPTNVGSNTY-NH2; disulfide 1-6)
- EC50 [1]: 12.1 pM
- EC50 [2]: 2780 pM
- Time taken to detect increase in fluorescence intensity [3]: >144 h
- Cummulative food intake (% vehicle treated intake) At 12 h [4]: 18.8 % vehicle treated intake
- Cummulative food intake (% vehicle treated intake) At 24 h [4]: 24.6 % vehicle treated intake
- Cummulative food intake (% vehicle treated intake) At 48 h [4]: 46.6 % vehicle treated intake

From patent publication US20240067693A1, “POLYPEPTIDES AND USES THEREOF” (MEDIMMUNE LIMITED, priority 2020, published 2024)
